The values that follow come from patent US20230135758A1, “[…] 1-ALPHA INHIBITORS AND USES THEREOF” (The Regents of the University of California, priority 2020, published 2023).

“Also recorded” adds a separate entry of the source. Where two headings read alike, the source gives them in different places.

The subject of series [1] is protein synthesis in HCT116 cells. Description: Protein synthesis inhibition assay (transient exposure, followed by washout), O-propargyl puromycin incorporation. The series is classed as cell-based. The following applies: 100 nM for 4 h, 24 h compound-free media. On the procedure:
HCT116 cells at 80% confluency in 24-well plates were incubated with compounds with at 100 nM for 4 hours at 37° C. O-propargyl-puromycin (30 uM final concentration) was then added, and the cells were incubated for 1 hour at 37° C. Media was carefully removed, cells were washed with warm PBS twice (2× short wash), followed by 5 min incubation in warm medium at 37° C. (long wash). After repeating the “short-long” washing cycle for 3 times, cells were then resuspended in warm media and incubated at 37° C. After the indicated time post-washout, media was removed, and cells were trypsinized, collected, and washed twice with ice-cold PBS before transferring to a 96-well V bottom plate. 100 uL Zombie Red (BioLegend, San Diego, Calif.) solution was added to each well and incubated for 30 min at RT in the dark. Cells were then washed with 2% FBS in PBS buffer before fixed with 200 uL of 4% PFA in PBS for 15 min on ice in dark. After washing the cells with 2% FBS in PBS buffer, 200 uL permeabilization buffer (3% FBS, 0.1% Saponin in PBS) was added to each well, and cells were incubated for 5 min at RT in the dark. Cells were then washed and resuspended in 25 uL permeabilization buffer. 100 uL click chemistry mix (50 mM HEPES pH=7.5, 150 mM NaCl, 400 uM TCEP, 250 uM TBTA, 5 uM CF405M-Azide (Biotium, Fremont, Calif.), 200 uM Cu2SO4) was added to each well, and cells were incubated at RT in dark. After the overnight incubation, cells were washed with permeabilization buffer followed by FACS buffer (2% FBS, 1% P/S, 2 mM EDTA, in PBS w/o Ca/Mg). Cells were then resuspended in 200 uL FACS buffer and filtered before FACS analysis (FACSCanto II, Becton Dickinson, Franklin Lakes, N.J.). Only single, live cells were analyzed (FlowJo), as judged by forward/side scattering and the absence of Zombie Red staining. Protein synthesis inhibition curves were generated by first normalizing intensity to the cycloheximide-treated (50 μg/mL for 1 h, maximum inhibition) and DMSO-treated control samples. Normalized intensity was plotted in GraphPad Prism.

For series [2], the system named is HCT116, H929, and MM1S cells. Description: Proliferation assay (transient exposure, followed by washout), CellTiter Glo. The following applies: for antiproliferative activity after transient exposure and washout: 1 h or 4 h exposure, stringent washout, 72 h compound-free media, HCT116, H929, MM1S. The series is classed as cell-based. On the procedure: 0.6×10^6 cells were seeded in 3 mL complete growth media per well in 6-well plates. […] For adherent cells, growth media was carefully removed, cells were washed with warm PBS twice (2×short wash), and followed by 5 min incubation in warm media at 37° C. (long wash). After repeating the “short-long” washing cycle 3 times, cells were resuspended in warm media and plated in flat-bottom 96-well plates (100 uL/well) at equal cell number. For suspension cells, cells were collected and spun down at 300×g for 3 min. Supernatant was carefully removed, cells were then washed with warm PBS twice (2× short wash), followed by 5 min incubation in warm media at 37° C. (long wash). After repeating the “short-long” washing cycle 3 times, cells were resuspended in warm media and plated in flat-bottom 96-well plates (100 uL/well) at equal cell number. After the indicated times post-washout, CellTiter Glo (Promega, Madison, Wis.) was used to asses the cell viability per the manufacturer's instructions. Briefly, after adding 100 uL CellTiter Glo reagent to each well, the plate was rocked at room temperature for 5-10 min, and luminescence intensity was measured. Proliferation curves were generated by first normalizing luminescence intensity in each well to the average T=0 value for each compound. Normalized luminescence intensity was plotted in GraphPad Prism (triplicate values, mean±SD).

Another series has as its system Eμ-Myc/+ lymphoma cells. The experiment in a line: Eμ-Myc mouse lymphoma model. It is filed as in vivo. The method, then: Mouse studies were approved by the University of California, San Francisco Institutional Animal Care and Use Committee (IACUC). Eμ-Myc/+ mice were purchased from the Jackson Laboratory. For the Eμ-Myc tumor model, allograft mice were generated using spontaneous lymph node tumors derived from Eμ-Myc mice. 5×10^5 Eμ-Myc/+ lymphoma cells were injected via the tail vein into eight-week-old male C57BL/6J mice. Seven days after lymphoma cell injection, mice were randomized to receive vehicle (10% EtOH/Kolliphor EL in water, n=5 mice) or (S,R)-A3 (n=5 mice) by intraperitoneal injection every other day (3 times per week) until the endpoint based on the IACUC-approved protocol. Eμ-Myc mice in the (S,R)-A3 treatment arm received (S,R)-A3 at a dose of 2 mg/kg for the first 21 days and 1-2 mg/kg after treatment day 21 according to their body weights (BW): BW>26 g, 2 mg/kg; BW 25-26 g, 1.5 mg/kg; BW 24-25 g, 1 mg/kg).
We next tested the effect of (S,R)-A3 in a preclinical mouse model of B-cell lymphoma using an intermittent dosing regimen (QOD×3, every other day, 3 doses per week via intraperitoneal injection). Eμ-Myc/+ mice are a well-characterized mouse lymphoma model that overexpress MYC under the transcriptional control of the IgH enhancer element. These mice recapitulate the genetic lesion underlying Burkitt's Lymphoma. Eμ-Myc/+ lymphoma cells were injected via the tail vein into eight-week-old male C57BL/6J mice. Seven days after lymphoma cell injection, mice were randomized to receive vehicle or (S,R)-A3 by intraperitoneal injection (QOD×3, n=5 mice/treatment arm).

For series [3], the system named is HCT116, H929, and MM1S cells. Description: Proliferation assay (continuous exposure), 72 h, Alamar Blue. The series is classed as cell-based. The following applies: 72 h continuous. The method, then:
To assess in vitro anticancer activity, HCT116, H929, and MM1S cells were treated continuously for 72 hours with increasing concentrations of (S,S)-A3, (S,R)-A3, or dA3 (cyclic peptide 4 (Carelli, Taunton, et al., eLife, 2015), here termed “dA3” (deoxy-A3)). Cell viability was then assessed using the Alamar Blue assay.
For orientation: Alamar Blue is a resazurin reagent that responds to reducing activity.

Series [4] concerns protein synthesis in HCT116 cells. The experiment in a line: Protein synthesis inhibition assay (continuous exposure), O-propargyl puromycin incorporation. It is filed as cell-based. Conditions: 24 h treatment, 1 h OPP pulse, read-out: IC50, rate of protein synthesis. The method, then:
HCT116 cells at 80% confluency in 12-well plates were incubated with compounds with varying concentrations for 10 min or 24 hours at 37° C. After the indicated time, O-propargyl-puromycin (30 μM final concentration) was added, and the cells were incubated for 1 hour at 37° C. Subsequently, media was removed, and cells were trypsinized, collected, and washed twice with ice-cold PBS before transferring to a 96-well V bottom plate. 100 uL Zombie Red (BioLegend, San Diego, Calif.) solution was added to each well and incubated for 30 min at RT in dark. Cells were then washed with 2% FBS in PBS buffer before fixed with 200 uL of 4% PFA in PBS for 15 min on ice in dark. After washing the cells with 2% FBS in PBS buffer, 200 uL permeabilization buffer (3% FBS, 0.1% saponin in PBS) was added to each well, and the cells were incubated for 5 min at RT in the dark. Cells were then washed and resuspended in 25 uL permeabilization buffer. 100 uL click chemistry mix (50 mM HEPES pH=7.5, 150 mM NaCl, 400 uM TCEP, 250 uM TBTA, 5 uM CF405M-Azide (Biotium, Fremont, Calif.), 200 uM Cu2SO4) was added to each well, and cells were incubated at RT in the dark. […] Only single, live cells were analyzed (FlowJo), as judged by forward/side scattering and the absence of Zombie Red staining. […]

Series [5] relates to eEF1A-mutant (A399V) HCT116 cells. Conditions: read-out: IC50, cell proliferation in eEF1A-mutant (A399V) cells; 72 h; AlamarBlue.
Method: Cell proliferation (% DMSO control) was quantified using AlamarBlue. […] Data points (% DMSO control) are mean values±SD (n=3).
Adherent cells were briefly trypsinized and repeatedly pipetted to produce a homogeneous cell suspension. 2,500 cells were seeded in 100 uL complete growth media per well in 96-well clear-bottom plates. Suspension cells were repeatedly pipetted to produce a homogeneous cell suspension. 10,000 cells were seeded in 100 uL complete growth media per well in 96-well clear-bottom plates. After allowing cells to grow/adhere overnight, cells were treated with 25 uL/well 5×drug stocks (0.1% DMSO final) and incubated for 72 hr. AlamarBlue (Life Technologies, Grand Island, N.Y.) was used to assess cell viability per the manufacturer's instructions. Briefly, 12.5 uL alamarBlue reagent was added to each well, and plates were incubated at 37° C. Fluorescence intensity was measured every 30 min to determine the linear range for each assay (Ex 545 nm, Em 590 nm, SPARK, Tecan Austria GmbH, Austria). Proliferation curves were generated by first normalizing fluorescence intensity in each well to the DMSO-treated plate average. Normalized fluorescence intensities were plotted in GraphPad Prism (GraphPad, La Jolla, Calif.), and IC50 values calculated from nonlinear regression curves. The reported IC50 values represent the average of at least three independent determinations (±SD).
A short description of series [6]: FIG. 14. The method, then:
(§1) Table printed on a drawing sheet, FIG. 14
(§2) The patent's description of the figure: FIG. 14. SRA3 pharmacokinetic data. PK studies were performed in C57BL/6 mice
First reader's note: IP route is given in the head cell of the first column; the plot legend on the same sheet prints IP 2 mg/kg in mouse.

The nature of series [7]: FIG. 14. On the procedure: as §1, §2
First reader's note: IV route is given in the head cell of the first column; the plot legend on the same sheet prints IV 2 mg/kg in mouse.
The source holds these as a separate data set.

A further series deals with HCT116 cells. The experiment in a line: Cell viability, Alamar Blue, 24 h treatment. The following applies: relative to DMSO controls. It is filed as cell-based. On the procedure:
5,000 HCT116 cells were seeded in 100 μL complete growth media per well in 96-well plates.

The target in series [8] is eEF1A (Elongation Factor 1-alpha), wild type (UniProt P68104). Description: cell-based or functional assay.
[9] abbreviates: C57BL/6, mouse, in vivo, ip, 2 mg/kg.
Setting [10] is: C57BL/6, mouse, in vivo, iv, 2 mg/kg.

eEF1A (Elongation Factor 1-alpha), wild type, sequence (P68104 2-462): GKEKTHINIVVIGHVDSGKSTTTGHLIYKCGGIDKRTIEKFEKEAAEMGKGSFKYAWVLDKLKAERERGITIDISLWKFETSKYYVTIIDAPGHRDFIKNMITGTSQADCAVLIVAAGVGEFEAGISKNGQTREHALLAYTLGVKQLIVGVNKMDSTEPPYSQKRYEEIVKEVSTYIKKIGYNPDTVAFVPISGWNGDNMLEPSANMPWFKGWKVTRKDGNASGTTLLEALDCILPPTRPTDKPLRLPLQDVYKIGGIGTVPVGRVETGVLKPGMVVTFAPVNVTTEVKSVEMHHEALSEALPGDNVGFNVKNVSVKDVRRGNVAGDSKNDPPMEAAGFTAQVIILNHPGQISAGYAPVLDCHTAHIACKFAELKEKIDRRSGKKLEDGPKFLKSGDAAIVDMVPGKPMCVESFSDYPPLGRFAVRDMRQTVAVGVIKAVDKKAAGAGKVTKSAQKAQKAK

With `C=C[C@H](C)C[C@@H]1NC(=O)[C@H]([C@H](O)C(C)C)N(C)C(=O)[C@H](C)N(C)C(=O)[C@@H]([C@@H](C)CC)NC(=O)[C@@H]([C@H](O)C(C)C)NC(=O)[C@H]2CCCCN2C(=O)[C@H](C)N(C)C1=O` [(S,R)-A3], the “recovery of protein synthesis after washout” value (from here on “recovery of protein synthesis”) in [1] was “sustained, washout-resistant manner”. The “antiproliferative activity after transient exposure and washout” value in series [2] is “profound and sustained loss of cell viability; also recorded: strong antiproliferative activity”. In addition, the “maximum BW loss” value in the series on Eμ-Myc/+ lymphoma cells (2 mg/kg (1-2 mg/kg after day 21) intraperitoneal, QOD×3) is recorded as less than 8%. Further, the survival result with Eμ-Myc/+ lymphoma cells (2 mg/kg (1-2 mg/kg after day 21) intraperitoneal, QOD×3, P=0.0027) is “significantly improved survival”. The tumor growth entry in the series on Eμ-Myc/+ lymphoma cells (2 mg/kg (1-2 mg/kg after day 21) intraperitoneal, QOD×3, start 7 days after cell injection) is given as “reduced tumor growth”. In the series with Eμ-Myc/+ lymphoma cells (Eμ-Myc mouse model of B-cell lymphoma), the “efficacy in mouse lymphoma model” value was “efficacious”. Further, in series [3], the “reduction of cell viability, continuous treatment” value is recorded as “low nanomolar concentrations”.

With `C=C[C@H](C)C[C@@H]1NC(=O)[C@H]([C@@H](O)C(C)C)N(C)C(=O)[C@H](C)N(C)C(=O)[C@@H]([C@@H](C)CC)NC(=O)[C@@H]([C@H](O)C(C)C)NC(=O)[C@H]2CCCCN2C(=O)[C@H](C)N(C)C1=O` [(S,S)-A3], in series [1], the “recovery of protein synthesis” value is on record as “partially recovered”. For the same compound, in series [2], the “antiproliferative activity after transient exposure and washout” value is reported as “less efficacious”. In addition, the “reduction of cell viability, continuous treatment” value in [3] is “low nanomolar concentrations”.

Turning to `C=C[C@H](C)C[C@@H]1NC(=O)[C@H]([C@H](O)C(C)C)N(C)C(=O)[C@H](C)N(C)C(=O)[C@@H]([C@@H](C)CC)NC(=O)[C@@H]([C@H](O)C(C)C)NC(=O)[C@H]2CCCCN2C(=O)[C@H](C)N(C)C1=O` [SR-A3], the IC50 in series [4] is roughly 20 nM; in series [5], greater than 1000 nM. Also, the “recovery of protein synthesis” value in series [1] is “sustained inhibition”. Also, in series [2] (HCT116, 100 nM for 4 h, rigorous washout, 72-h washout period), the “cell proliferation after washout” value was “nearly abolished”.

Broadly, the Cmax is the highest concentration seen after dosing. A word on the MRT: it is a mean duration of stay, worked out from the concentration-time curve. The half-life is the time in which the quantity being followed falls by half. A higher half-life goes with slow decline. Broadly, the Vss is the apparent volume that relates the amount in the body to the concentration in plasma or blood. What is called Vz is a proportionality between amount in the body and measured concentration, not a real space. Lower therefore signals confinement near the circulation. On to `C=C[C@H](C)C[C@@H]1NC(=O)[C@H]([C@H](O)C(C)C)N(C)C(=O)[C@H](C)N(C)C(=O)[C@@H]([C@@H](C)CC)NC(=O)[C@@H]([C@H](O)C(C)C)NC(=O)[C@H]2CCCCN2C(=O)[C@H](C)N(C)C1=O` [SRA3], for which, in “FIG. 14 [6]”, the “AUCInf” value stood at 384 ng·h/mL, the “AUCInf/D” value amounted to 192 kg·ng·h/mL/mg, the “AUClast” value was found to be 347 ng·h/mL and the “F (%)” value was 97.2%. Also, the “tmax” value in the series “FIG. 14 [6]” is 0.583 h. In the series “FIG. 14 [6]” (setting [9]), this compound had a peak concentration (Cmax) of 86.6 ng/mL, a mean residence time (MRT) of 8.63 h and a half-life of 8.21 h. Besides, in “FIG. 14 [7]”, the “AUCInf” value amounted to 395 ng·h/mL, the “AUClast” value stood at 367 ng·h/mL, the “CL” value amounted to 87.2 mL/min/kg and the “Vss” value is 42.0 L/kg. The “Vz” value in the series “FIG. 14 [7]” amounted to 52.7 L/kg. In the series “FIG. 14 [7]” (setting [10]), this compound gave a C0 of 204 ng/mL, a mean residence time MRT of 7.97 h and a half-life of 6.79 h.

In the series on HCT116 cells, `C=C[C@H](C)C[C@@H]1NC(=O)[C@H]([C@H](O)C(C)C)N(C)C(=O)[C@H](C)N(C)C(=O)[C@@H]([C@H](C)CC)NC(=O)[C@@H]([C@H](O)C(C)C)NC(=O)[C@H]2CCCCN2C(=O)[C@H](C)N(C)C1=O` [WHY3179] displayed an IC50 of 6.3 nM.

Take `C=C[C@H](C)C[C@@H]1NC(=O)[C@H]([C@H](O)C(C)C)N(C)C(=O)[C@H](C)N(C)C(=O)[C@@H]([C@@H](C)CC)NC(=O)[C@@H]([C@H](O)C2CC2)NC(=O)[C@H]2CCCCN2C(=O)[C@H](C)N(C)C1=O` [WHY4014]: the IC50 in the series on HCT116 cells was found to be 14.8 nM.

In [8], ternatin-4 (peptide) displayed a cell proliferation rate after transient exposure (100 nM, 4 h) and washout, HCT116 cells, % of DMSO control (% of DMSO control) of 50; a protein synthesis rate 24 h after washout (100 nM for 4 h), HCT116 cells, % of DMSO control (% of DMSO control) of 30; a rate of protein synthesis (OPP incorporation), HCT116 cells, 10 min treatment; potency relative to SR-A3 of 10 fold.
